From the supplement of paper PMC10307832

compound: CC1(COc2ccc3c(c2)ncn3-c2ccc3cccc(N4CCC(N)CC4)c3n2)COC1 [Crenolanib] + O=C(CCCCCCC(=O)Nc1ccccc1)NO [Vorinostat] (partner 1 µM); assay: relative viability (nuclei count vs DMSO), 5 days (fraction); higher = more cells survive; conditions: first compound 0.1 µM
Method in brief: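 Lung cancer cell lines in 1536-well plates got either a single drug or a fixed anchor-drug dose together with five library-drug doses (not always all listed) in √10 steps, by pin tool, on the day after seeding. Nuclei were counted after 5 days, and relative viability is the treated-to-vehicle ratio of nuclei counts. Values are medians of duplicate plates.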

Row | Cell Line | relative viability
1 | NCI-H727 | 1.06
2 | NCI-H1755 | 0.662
3 | NCI-H520 | 0.733
4 | NCI-H2405 | 0.93
5 | SW 1573 | 0.995
6 | NCI-H1395 | 0.96
7 | 201T | 0.929
8 | NCI-H1975 | 0.638
9 | HOP-62 | 0.635
10 | NCI-H2347 | 0.383
11 | NCI-H1355 | 0.626
12 | NCI-H650 | 0.468
13 | CAL-12T | 0.631
14 | NCI-H1666 | 0.991
15 | H3255 | 0.838
16 | NCI-H23 | 0.621
17 | NCI-H1915 | 0.487
18 | NCI-H1437 | 0.781
19 | NCI-H322M | 0.872
20 | NCI-H2085 | 0.809
21 | NCI-H1793 | 0.698
22 | PC-3 [JPC-3] | 0.824
23 | EKVX | 0.722
24 | LCLC-103H | 0.754
25 | NCI-H1650 | 0.582
26 | NCI-H1944 | 0.491
27 | NCI-H1993 | 0.777
28 | SK-LU-1 | 0.603
29 | ABC-1 | 1.13
30 | NCI-H358 | 0.633

same assay, conditions: first compound 0.3162 µM

Row | Cell Line | relative viability
31 | NCI-H441 | 1
32 | LOU-NH91 | 0.886
33 | NCI-H2023 | 0.813
34 | A-427 | 0.946
35 | NCI-H460 | 1.16
36 | NCI-H727 | 1.32
37 | NCI-H1755 | 0.903
38 | NCI-H520 | 0.765
39 | NCI-H2405 | 1.12
40 | SW 1573 | 0.929
41 | NCI-H1395 | 0.689
42 | 201T | 0.955
43 | NCI-H1975 | 0.71
44 | HOP-62 | 0.829
45 | NCI-H2347 | 0.707
46 | NCI-H1355 | 0.706
47 | NCI-H650 | 0.368
48 | CAL-12T | 0.966

Row | Cell Line | relative viability
49 | NCI-H1666 | 1.09
50 | H3255 | 0.853
51 | NCI-H23 | 0.517
52 | NCI-H1915 | 0.511
53 | NCI-H1437 | 0.857
54 | NCI-H322M | 0.808
55 | NCI-H2085 | 0.781
56 | NCI-H1793 | 0.863
57 | PC-3 [JPC-3] | 0.7
58 | EKVX | 0.888
59 | LCLC-103H | 0.811
60 | NCI-H1650 | 0.812
61 | NCI-H1944 | 0.693
62 | NCI-H1993 | 0.797
63 | SK-LU-1 | 0.811
64 | ABC-1 | 1.17
65 | NCI-H358 | 0.729

same assay, conditions: first compound 1 µM

Row | Cell Line | relative viability
66 | NCI-H441 | 0.832
67 | LOU-NH91 | 0.867
68 | NCI-H2023 | 0.634
69 | A-427 | 0.83
70 | NCI-H460 | 0.768
71 | NCI-H727 | 1.07
72 | NCI-H1755 | 0.832
73 | NCI-H520 | 0.652
74 | NCI-H2405 | 0.706
75 | SW 1573 | 0.606
76 | NCI-H1395 | 0.695
77 | 201T | 0.983
78 | NCI-H1975 | 0.678
79 | HOP-62 | 0.552
80 | NCI-H2347 | 0.645
81 | NCI-H1355 | 0.481
82 | NCI-H650 | 0.417
